Measurements taken from ChEMBL document CHEMBL1159114, “Novel bis-arylsulfonamides and aryl sulfonimides as inactivators of plasminogen activator inhibitor-1 (PAI-1)” (Bioorg Med Chem Lett, 2010).

Tests used:
Antithrombin-III = Antithrombin-III (Homo sapiens, UniProt P01008); assay: Inhibition of antithrombin-3 assessed as residual alpha-thrombin activity
[1] = target: T1, Plasminogen activator inhibitor 1 (Homo sapiens, UniProt P05121); assay: Inhibition of human recombinant PAI1 assessed as rate of AMC release after 30 mins
[2] = target: T1, Plasminogen activator inhibitor 1; assay: Inhibition of human recombinant PAI1 assessed as rate of AMC release at 300 uM after 30 mins

T1 sequence (P05121 whole entry): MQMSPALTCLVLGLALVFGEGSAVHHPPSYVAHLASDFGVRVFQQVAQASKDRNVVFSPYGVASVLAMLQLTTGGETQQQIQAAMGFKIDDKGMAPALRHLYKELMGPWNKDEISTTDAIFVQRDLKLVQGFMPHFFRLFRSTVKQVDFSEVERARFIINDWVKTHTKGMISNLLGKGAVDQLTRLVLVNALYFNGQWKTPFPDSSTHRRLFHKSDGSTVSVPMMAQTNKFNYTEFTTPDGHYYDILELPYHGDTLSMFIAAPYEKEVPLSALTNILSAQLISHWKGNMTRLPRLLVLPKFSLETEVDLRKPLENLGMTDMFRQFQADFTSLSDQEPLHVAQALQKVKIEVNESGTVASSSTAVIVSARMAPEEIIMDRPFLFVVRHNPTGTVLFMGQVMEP
Chain of Antithrombin-III (P01008 whole entry): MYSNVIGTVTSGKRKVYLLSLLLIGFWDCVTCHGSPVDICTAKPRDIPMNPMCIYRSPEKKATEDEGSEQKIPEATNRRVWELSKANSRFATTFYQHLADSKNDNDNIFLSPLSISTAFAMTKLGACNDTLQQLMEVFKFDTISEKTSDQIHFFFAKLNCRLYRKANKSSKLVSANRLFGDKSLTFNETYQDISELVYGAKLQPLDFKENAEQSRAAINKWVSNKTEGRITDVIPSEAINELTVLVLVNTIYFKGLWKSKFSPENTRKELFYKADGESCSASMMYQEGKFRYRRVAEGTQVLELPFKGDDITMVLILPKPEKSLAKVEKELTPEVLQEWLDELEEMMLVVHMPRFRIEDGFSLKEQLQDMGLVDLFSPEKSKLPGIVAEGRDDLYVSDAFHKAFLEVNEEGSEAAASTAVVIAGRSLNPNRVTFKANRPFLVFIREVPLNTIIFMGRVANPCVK

Row | SMILES | IC50 (Antithrombin-III) | IC50 [1] | inhibition [2]
1 | CCN(CCN(CC)S(=O)(=O)c1ccc(OC)c(OC)c1)S(=O)(=O)c1ccc(OC)c(OC)c1 | > 300 µM | > 300 µM | 
2 | O=S(=O)(c1ccc(O)c(O)c1)N1CCN(S(=O)(=O)c2ccc(O)c(O)c2)CC1 | > 300 µM | > 300 µM | < 30%
3 | O=S(=O)(NCCNS(=O)(=O)c1ccc(O)c(O)c1)c1ccc(O)c(O)c1 | > 3000 µM | 518 µM | 
4 | CCN(CCN(CC)S(=O)(=O)c1ccc(O)cc1)S(=O)(=O)c1ccc(O)cc1 | > 300 µM | > 300 µM | 
5 | CCCN(S(=O)(=O)c1ccc(O)c(O)c1)S(=O)(=O)c1ccc(O)c(O)c1 | > 1000 µM | 2.67 µM | 
6 | CCN(CCN(CC)S(=O)(=O)c1ccccc1)S(=O)(=O)c1ccccc1 | > 300 µM | > 300 µM | 
7 | O=S(=O)(c1ccc(O)c(O)c1)N(C1CCCCC1)S(=O)(=O)c1ccc(O)c(O)c1 | > 300 µM | 0.594 µM | 
8 | CCN(CCN(CC)S(=O)(=O)c1cc(F)c(O)c(F)c1)S(=O)(=O)c1cc(F)c(O)c(F)c1 | > 3000 µM | 128 µM | 
9 | O=S(=O)(c1ccc(O)c(O)c1)N(Cc1ccccc1)S(=O)(=O)c1ccc(O)c(O)c1 | > 300 µM | 4.82 µM | 
10 | O=S(=O)(NCCCCCCNS(=O)(=O)c1ccc(O)c(O)c1)c1ccc(O)c(O)c1 | > 3000 µM | 1380 µM | 
11 | CCN(CCN(CC)S(=O)(=O)c1ccc(O)c(O)c1)S(=O)(=O)c1ccc(O)c(O)c1 | > 1000 µM | 9.32 µM | 
12 | CCN(CCN(CC)S(=O)(=O)c1cccc(O)c1)S(=O)(=O)c1cccc(O)c1 | > 1000 µM | 343 µM | 
13 | CCN(CCN(CC)S(=O)(=O)c1cc(O)ccc1O)S(=O)(=O)c1cc(O)ccc1O | > 300 µM | > 300 µM | < 30%
14 | CCCCCCN(S(=O)(=O)c1ccc(O)c(O)c1)S(=O)(=O)c1ccc(O)c(O)c1 | > 300 µM | 0.284 µM | 
15 | O=S(=O)(NCCCCNS(=O)(=O)c1ccc(O)c(O)c1)c1ccc(O)c(O)c1 | > 3000 µM | > 3000 µM | 
